# Non-standard residues stand in square brackets, D forms with d. No end group written: not given here. Dmt = Cc1cc(O)cc(C)c1C[C@H](N)C(=O)O; Orn = NCCC[C@H](N)C(=O)O
# T1: purified PSD (Homo sapiens, UniProt Q9UG56)
# T1 construct: Purified recombinant protein (full length) of human phosphatidylserine decarboxylase (PSD); His tag (N); purchased Acris-OriGene; host or cells: E. coli
# T1 sequence (Q9UG56 53-409): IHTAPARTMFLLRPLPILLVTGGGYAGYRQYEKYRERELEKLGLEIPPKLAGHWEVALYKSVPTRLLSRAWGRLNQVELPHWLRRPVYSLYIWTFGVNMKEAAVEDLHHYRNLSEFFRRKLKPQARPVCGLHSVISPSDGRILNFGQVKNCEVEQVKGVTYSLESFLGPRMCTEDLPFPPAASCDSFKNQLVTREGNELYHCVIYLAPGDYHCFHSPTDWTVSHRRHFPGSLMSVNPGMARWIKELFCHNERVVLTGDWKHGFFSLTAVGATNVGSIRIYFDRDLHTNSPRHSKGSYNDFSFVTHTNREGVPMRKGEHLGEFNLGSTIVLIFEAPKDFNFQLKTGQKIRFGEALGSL
# T2: Purified recombinant protein (full length) of human phosphatidylserine decarboxylase (PSD) (human, UniProt Q9UG56 53-409, fluorescently labelled (in the MST with the peptides 2F3 and 1C11 only))
# T2 construct: phosphatidylserine decarboxylase, human, full length, recombinant; also called PISD; purified PSD; source: bought: Acris‐OriGene, expressed in E. coli, purified; not shown: His tag, N-terminal, kept
# T2 sequence (looked up): T1 sequence (Q9UG56 53-409)
# B1: Human recombinant SMAC (SMAC/Diablo, second mitochondria‐derived activator of caspase/direct inhibitor of apoptosis‐binding protein with low pI) (natural protein)
# chain: AVPIAQKSEPHSLSSEALMRRAVSLVTDSTSTFLSQTTYALIEAITEYTKAVYTLTSLYRQYTSLLGKMNSEEEDEVWQVIIGARAEMTSKHQEYLKLETTWMTAVGLSEMAAEAAYQTGADQASITARNHIQLVKLQVEEVHQLSRKAETKLAEAQIEELRQKTQEEGEERAESEQEAYLRED
# modifications: fluorescently labelled with the NanoTemper Protein labelling kit BLUE (in the MST with PSD only)
# Assays:
# [1] = Cell death induced by the PE probe; format: cell-based; details: data not shown
# purified SMAC = assay: Glass‐bound peptide array blotted with SMAC with or without PSD; format: binding, human; details: SMAC preincubated with purified PSD, anti‐SMAC antibodies
# Method: Customized 768‐peptide sequences derived from 11 SMAC‐interacting proteins produced by INTAVIS Peptide Services (GmbH & Co. KG, Tübingen, Germany) were arrayed on a glass slide. Peptide arrays were blotted with SMAC, PSD or peptides interacting with PSD using anti‐SMAC or anti‐PSD antibodies. The interaction of purified SMAC or PSD with glass‐bound peptide arrays was assessed by slide washing (three times, 10 min each) with Tris‐buffered saline (150 mM NaCl, 50 mM Tris/HCl, pH 7.4), followed by overnight incubation with blocking buffer (Tris‐buffered saline containing low‐fat dry milk, 2.5%, w/v). The slides were then incubated for 4 h or overnight with purified SMAC (0.8 µM) with and without preincubation with PSD (0.3 µM). Similarly, slides were incubated with PSD (0.15 µM) with or without preincubation with the indicated peptide (20 μM) in blocking buffer at room temperature. After extensive slide washing with Tris‐buffered saline containing 0.05% Tween‐20, SMAC or PSD binding was detected using anti‐SMAC or anti‐PSD antibodies and HRP‐conjugated anti‐rabbit or anti‐mouse IgG as a secondary antibody. The blots were developed using EZ‐ECL (Biological Industries), according to the manufacturer’s instructions.
# Fig. 6 PSD‐ and SMAC‐interacting partners. (A) Schematic presentation of peptide array and detection of their interaction with SMAC. (B) Glass‐bound peptide array consisting of overlapping peptides derived from 15 SMAC‐interacting proteins were incubated overnight with purified SMAC (0.8 µM) and then blotted with anti‐SMAC antibodies (1 : 1000), followed by incubation with HRP‐conjugated anti‐mouse IgG and detection using a chemiluminescence kit. Dark spots represent binding of SMAC to peptides derived from SMAC‐interacting proteins. (C) SMAC (0.3 µM) was incubated with purified PSD (0.4 µM) and blotted as in (B). The peptide spots where PSD prevented interaction with SMAC (Table S1) are circled. (D) Schematic presentation of peptide array and detection of their interaction with PSD. […]
# different cell lines = details: ref [35], cited from earlier work
# Source text: To target the peptide to the nucleus (nuCPP), the peptides were fused to the tetrapeptide RrRK (r = D‐arginine), shown to primarily target the nucleus of HeLa cells.
# phospholipid levels = assay: Total PL, PC and PE levels in treated tumours; format: in vivo; details: si‐hSMAC‐A‐TTs relative to si‐NT‐TTs, n = 6 mice per group
# Method: Total lipids were extracted from the SMAC‐KO and wild‐type A549/HEK 293T cells by the Folch method. Briefly, a cell suspension (2 × 10^7 cells/mL) was made in CHCl3/MeOH (2 : 1, v/v) sonicated for 30 s. Water (116 μL·mL^−1) was added to the suspension and shaken for 2 h at room temperature at 300 r.p.m. The aqueous suspension was heated for 10 min at 60 °C and stored at 4 °C for 3 h. Undissolved material was filtered through a 0.45‐μm syringe filter. Solvent was evaporated under nitrogen, and residues were re‐dissolved in CHCl3/MeOH for lipid analysis.
# Total phospholipid content of the cells was determined calorimetrically at 488 nm based on the formation of a complex between the PLs and ammonium ferrothiocyanate. PC level was also determined by calorimetric analysis at 316 nm using ammonium thiocyanatocobaltate reagent, as described previously.
# PE content in the lipid samples was measured as described previously. Briefly, solvent was evaporated from the lipid samples under nitrogen gas, and samples were resuspended in 0.8 mM Triton X‐100. Sample aliquots were added to 96‐well plates containing (50 µL) reaction mixture (80 mM NaCl, 2 mM K2HPO4, pH 7.4) and of borate buffer (12.5 µL) (100 mM boric acid, 75 mM NaCl, 25 mM sodium tetraborate, pH 9). After mixing, 12.5 µL of 100 µM DSB‐3, in 10 mM K2HPO4 (pH 7.4), was then added and incubated for 2 h in the dark with shaking (100 r.p.m.). Fluorescence was measured using excitation λex = 403 nm and emission λem = 508 nm. A calibration curve was obtained using PE (Biovision) as a standard.
# (§1) Results are presented as the mean tumour volume ± SEM. […] Results are the means ± SEM.
# SMAC/Diablo = assay: SMAC expression in treated tumours (immunoblot, IHC); format: in vivo, human; details: si‐hSMAC‐A‐TTs versus si‐NT‐TTs, n = 6 mice/group
# Method: Cells were harvested and washed twice with ice‐cold PBS, and the pellets were lysed on ice for 30 min in a lysis buffer (50 mM Tris/HCl, pH 7.5, 150 mM NaCl, 1 mM EDTA, 1.5 mM MgCl2, 10% glycerol, 1% Triton X‐100), freshly supplemented with a protease inhibitor cocktail (Calbiochem) and centrifuged (10 min, 12 000 g ). The protein concentration of the supernatant was determined, and cells were stored at −80 °C until used for gel electrophoresis and immunoblotting. Protein samples (10–20 μg) were subjected to SDS‐PAGE and immunoblotting, using the selected primary antibodies, followed by incubation with HRP‐conjugated secondary antibodies. HRP activity was determined using EZ‐ECL (Biological Industries). Band intensity was quantified using FUSION‐FX (Vilber Lourmat, Collégien, France).
# as §1
# A549 cell xenograft [2] = assay: A549 lung cancer xenograft tumour growth; format: in vivo, athymic nude mice; details: relative to si‐NT‐treated tumours, nude mice, n = 8 mice/group
# Method: Male Hsd:Athymic ' Nude‐Foxn1nu mice (6–8 weeks old) were obtained from Envigo and were kept in the university animal facility in temperature‐controlled rooms and provided with water and food pellets ad libitum. All procedures involving mice were approved by the Ben‐Gurion Institutional Animal Care and Use Committee.
# Lung cancer A549 (3 × 10 ^6 ) cells were implanted subcutaneously on the dorsal flanks. Tumour growth was recorded using digital calibre, and volumes were calculated using, volume = X^2 × Y/2, where X and Y are the short and long tumour dimensions, respectively. Mice were divided randomly into three groups once the average tumour volume reached ˜ 80 mm^3 and were treated subcutaneously with si‐NT or si‐hSMAC‐A mixed with JetPEI reagent (350 or 700 nM final concentration) three times a week. Mice were sacrificed at the end of experiment, and the tumours were excised and processed for immunohistochemistry (IHC) or frozen in liquid nitrogen for immunoblotting and RNA isolation.
# as §1
# A549 cell xenograft [3] = assay: TUNEL staining of treated tumours; format: in vivo, athymic nude mice; details: si‐hSMAC‐A‐TTs, data not shown
# [4] = test system: VDAC1‐IP3R close association (MAM); assay: In‐situ proximity ligation assay VDAC1‐IP3R (MAM) in tumour sections; format: in vivo; details: si‐hSMAC‐A‐TTs sections relative to si‐NT‐TTs
# Method: PLA was conducted as previously described using an in␣situ detection reagent red kit (DuoLink InSitu PLA Probe kit; Sigma‐Aldrich) according to the manufacturer’s protocol. VDAC1‐IP3R and SMAC‐PSD were analysed using PLA [24]. Briefly, for tumour section, formalin‐fixed and paraffin‐embedded tumour sections (5‐μm thick) were deparaffinized and then permeabilized using 0.3% Triton X‐100 in PBS for 30 min, followed by blocking with Duolink® Blocking Solution for 1 h. Sections were incubated overnight with anti‐VDAC1 (rabbit 1 : 750) and anti‐IP3R (mouse, 1 : 750), washed twice with TBS‐Tween (0.01%) and then incubated for 1 h with the secondary anti‐mouse and anti‐rabbit antibodies (PLA probe MINUS and PLUS) that were conjugated to complementary oligonucleotide extensions, and ligation and amplification steps were performed per manufacturer’s instructions, and Texas red‐labelled oligonucleotide probes were detected.
# Fig. 3 Subcellular morphological alterations including ER‐mitochondria contact sites, as induced by reduction of SMAC levels. […] (C) and subjected to quantitative analysis (n = 5) (D). […] Images at high magnification (Ea,b) (scale bars represent 20, 5 µm as indicated) and ligation product quantification (F) are also shown.
# Ki‐67 = details: si‐hSMAC‐A‐TTs versus si‐NT‐TTs, IHC
# Method: Formalin‐fixed and paraffin‐embedded tumour sections were deparaffinized using xylene and a series of ethanol treatments. Sections were then incubated with 3% H2O2 for 10 min to block endogenous peroxidase activity. Antigen retrieval was done in 0.01 M citrate buffer (pH 6.0) at 95–98 °C for 30 min and washed with PBST (0.1% Tween‐20). In order to reduce nonspecific binding, sections were incubated in 10% NGS for 2 h and then incubated with primary antibodies (Table S1) overnight at 4 °C. For IHC, after washing with PBST, sections were incubated for 2 h at room temperature with HRP‐conjugated secondary antibodies, washed well with PBST and incubated with the substrate DAB Sections were washed with water, counterstained with haematoxylin and mounted with Vectashield mounting medium (Vector Laboratories). Sections were observed under a microscope (Leica DM2500, Wetzlar, Germany), and images were collected at 20× magnification with the same light intensity and exposure time. For IF, following overnight incubation with the primary antibodies, PBST‐washed sections were incubated with fluorescent‐tagged secondary antibodies for 2 h at room temperature in the dark. […]
# (D‐F) IHC stained of si‐hSMAC‐ or si‐NT‐TTs sections for SMAC (D), Ki‐67 (E), and their quantitative analysis (F) (n = 6 mice/group). […]
# purified PSD = target: T1, purified PSD; assay: MST, labelled PSD with synthetic peptides; details: labelled PSD 0.25 µM, peptide 1–10 µM, 30 min, 37 °C, n = 3, read-out: Kd, peptide binding to purified PSD
# [5] = target: T2, Purified recombinant protein (full …); assay: MST; SMAC fluorescently labelled (NanoTemper BLUE kit), 1 µM, incubated with purified PSD (78–625 nM) for 30 min at 37 °C; 10 mM Tris buffer, pH 7.4; Monolith NT.115, LED 20%, IR laser 20%; details: both partners purified
molecule,measurement,setting,value
Distyrylbenzene‐bis‐aldehyde [DSB‐3],cell death,[1],no cell death
PNQSSRAFQGT DHSSDLAFDFLSQQ [2I8],effect of PSD preincubation on SMAC binding to the peptide spot,purified SMAC,prevented SMAC interaction
[dR][Dmt][Orn]F-NH2 [mtCPP‐1],toxicity,different cell lines; different cell lines,no toxicity
same,induction of apoptosis,different cell lines,did not induce apoptosis
"si‐hSMAC‐A: Human SMAC/Diablo‐specific siRNA, sense 5′AAGCGGUGUUUCUCAGAATTGtt3′, antisense 5′AACAAUUCUGAGAAACCCG Ctt3′ (sense AAGCGGUGUUUCUCAGAATTGTT; antisense AACAAUUCUGAGAAACCCGCTT; chemistry not given here)",levels of PE increased,phospholipid levels; DSB‐3 probe,200%
same,levels of PC decreased,phospholipid levels,65%
same,levels of PLs decreased,phospholipid levels,50%
same,SMAC/Diablo level decreased,SMAC/Diablo,75%
same,tumour volume reduced,A549 cell xenograft [2]; si‐hSMAC‐A 350 nM,50%
same,tumour volume reduced,A549 cell xenograft [2]; si‐hSMAC‐A 700 nM,85%
same,"cell death, TUNEL staining",A549 cell xenograft [3],No cell death was detected
same,PLA signal VDAC1‐IP3R,[4],over fourfold
same,"expression of Ki‐67, cell proliferation marker",Ki‐67,highly reduced
FQQLTCVLPI LDNLLKANVINKQEH [1E14],effect of PSD preincubation on SMAC binding to the peptide spot,purified SMAC,prevented SMAC interaction
ALLTSGTSDPRARVTYGTPSLWRL [1C11],Kd,purified PSD,3 µM
ALSTSSPIPSVPQSQAQPQTGSGAS [2F3],Kd,purified PSD,3 µM
DVDKLREQLS TSENALTGRILDLKT [2J14],effect of PSD preincubation on SMAC binding to the peptide spot,purified SMAC,prevented SMAC interaction
B1,Kd,[5],246 nM

# Source: publication PMC8564633, “SMAC/Diablo controls proliferation of cancer cells by regulating phosphatidylethanolamine synthesis” (Molecular Oncology, 2021)
